Assay results from PubChem BioAssay AID330 (DTP/NCI, 2004).
“And” between values parts separate entries of the source, which are not always exact repeats. Identical values can stand only once. Inconclusive results and toxic doses are left out.

Test system: P388 leukemia ip, CD2F1 mice, survival T/C
Assay: NCI In Vivo Anticancer Drug Screen. Data for tumor model P388 Leukemia (intraperitoneal) in CD2F1 (CDF1) mice
Conditions: endpoint: median survival time, higher = longer survival
Outline: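 Mice carrying the transplanted tumor received test compound or vehicle. Survival was recorded in each group, and the value is the treated-group measurement divided by that of the vehicle-treated control group.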

[1] = dose: 100.0 mg/kg/injection, schedule: Q01DX005 (ip), vehicle: Klucel (hydroxypropylcellulose) (HPC)
[2] = dose: 200.0 mg/kg/injection, schedule: Q01DX005 (ip), vehicle: Klucel (hydroxypropylcellulose) (HPC)
[3] = dose: 50.0 mg/kg/injection, schedule: Q01DX009 (ip), vehicle: saline
[4] = dose: 200.0 mg/kg/injection, schedule: Q01DX009 (ip), vehicle: saline
[5] = dose: 50.0 mg/kg/injection, schedule: Q01DX009 (ip), vehicle: saline with Tween-80
[6] = dose: 100.0 mg/kg/injection, schedule: Q01DX009 (ip), vehicle: saline with Tween-80
[7] = dose: 200.0 mg/kg/injection, schedule: Q01DX009 (ip), vehicle: saline with Tween-80
[8] = dose: 50.0 mg/kg/injection, schedule: Q01DX005 (ip), vehicle: Klucel (hydroxypropylcellulose) (HPC)
[9] = dose: 100.0 mg/kg/injection, schedule: Q04DX002 (ip), vehicle: saline with Tween-80
[10] = dose: 200.0 mg/kg/injection, schedule: Q04DX002 (ip), vehicle: saline with Tween-80
[11] = dose: 400.0 mg/kg/injection, schedule: Q04DX002 (ip), vehicle: saline with Tween-80
[12] = dose: 50.0 mg/kg/injection, schedule: Q01DX005 (ip), vehicle: saline with Tween-80
[13] = dose: 25.0 mg/kg/injection, schedule: Q01DX009 (ip), vehicle: saline with Tween-80
[14] = dose: 50.0 mg/kg/injection, schedule: Q04DX003 (ip), vehicle: saline with Tween-80
[15] = dose: 100.0 mg/kg/injection, schedule: Q04DX003 (ip), vehicle: saline with Tween-80
[16] = dose: 50.0 mg/kg/injection, schedule: Q04DX003 (ip), vehicle: saline
[17] = dose: 100.0 mg/kg/injection, schedule: Q04DX003 (ip), vehicle: saline
[18] = dose: 100.0 mg/kg/injection, schedule: Q01DX005 (ip), vehicle: saline with Tween-80
[19] = dose: 200.0 mg/kg/injection, schedule: Q01DX005 (ip), vehicle: saline with Tween-80
[20] = dose: 200.0 mg/kg/injection, schedule: Q04DX003 (ip), vehicle: saline with Tween-80

For `S=c1nc(-c2ccccc2)[nH]c(=S)[nH]1`, the T/C (dose: 100.0 mg/kg/injection, schedule: Q01DX001 (ip), vehicle: Klucel (hydroxypropylcellulose) (HPC)) was 99 % of control, the T/C (dose: 200.0 mg/kg/injection, schedule: Q01DX001 (ip), vehicle: Klucel (hydroxypropylcellulose) (HPC)) was 106 % of control and the T/C (dose: 400.0 mg/kg/injection, schedule: Q01DX001 (ip), vehicle: Klucel (hydroxypropylcellulose) (HPC)) was 92 % of control.

`CC(C)C(NC(=O)CCNC(=O)OCc1ccccc1)C(=O)O` (stereo not drawn) was tested, and the T/C [1] was 102 % of control, the T/C [2] was 100 % of control and the T/C (dose: 400.0 mg/kg/injection, schedule: Q01DX005 (ip), vehicle: Klucel (hydroxypropylcellulose) (HPC)) was 96 % of control.

`C1=CNc2ccccc2N=C1` was tested, and the T/C [3] was 103 % of control, the T/C (dose: 100.0 mg/kg/injection, schedule: Q01DX009 (ip), vehicle: saline) was 112 % of control and the T/C [4] was 99 % of control.

`CC1=CC(c2c(O)cc(O)c(C(=O)CCc3ccccc3)c2O)C(C(C)C)CC1` (stereo not drawn) was tested, and the T/C (dose: 3.75 mg/kg/injection, schedule: Q01DX005 (ip), vehicle: Klucel + Tween-80) was 94 % of control, the T/C (dose: 7.5 mg/kg/injection, schedule: Q01DX005 (ip), vehicle: Klucel + Tween-80) was 103 % of control and the T/C (dose: 15.0 mg/kg/injection, schedule: Q01DX005 (ip), vehicle: Klucel + Tween-80) was 97 % of control. For the same compound, the T/C (dose: 30.0 mg/kg/injection, schedule: Q01DX005 (ip), vehicle: Klucel + Tween-80) was 98 % of control.

In the case of `CC(C)(C)CC(C)(C)c1ccc(OCc2cccc(F)c2)cc1`, the T/C [5] is reported as 97 % of control, the T/C [6] is reported as 97 % of control and the T/C [7] is reported as 100 % of control.

With `CCN1C(=O)C(=C2C=C(c3ccccc3)C(C#N)(c3ccccc3)C(c3ccccc3)=C2)C(=O)N(CC)C1=S` (stereo not drawn) the T/C [8] was 99 % of control, the T/C [1] was 97 % of control and the T/C [2] was 98 % of control.

For `O=C(CC(=NCCN=C(CC(=O)c1ccccc1)c1ccccc1)c1ccccc1)c1ccccc1.[Cu]`, the T/C [9] was 98 % of control, the T/C [10] was 96 % of control and the T/C [11] was 95 % of control.

`CCCCC[CH2][Sn]([CH2]C)([CH2]C)[O]C(C)=O` was tested, and the T/C (dose: 0.5 mg/kg/injection, schedule: Q01DX009 (ip), vehicle: saline with Tween-80) was 109 % of control, the T/C (dose: 1.0 mg/kg/injection, schedule: Q01DX009 (ip), vehicle: saline with Tween-80) was 113 % of control and the T/C (dose: 2.0 mg/kg/injection, schedule: Q01DX009 (ip), vehicle: saline with Tween-80) was 109 % of control.

For `CCOC1OCN(c2ccccc2)CC1(C)C` (stereo not drawn), the T/C [5] was 115 % of control, the T/C [6] was 114 % of control and the T/C [7] was 108 % of control. The T/C (dose: 400.0 mg/kg/injection, schedule: Q01DX009 (ip), vehicle: saline with Tween-80) was 117 % of control.

`CCN(CC)CCCN(C)Cc1c(-c2ccccc2)oc(-c2ccccc2)c1Cl` was tested, and the T/C (dose: 6.25 mg/kg/injection, schedule: Q01DX005 (ip), vehicle: saline with Tween-80) was 106 % of control, the T/C (dose: 12.5 mg/kg/injection, schedule: Q01DX005 (ip), vehicle: saline with Tween-80) was 106 % of control and the T/C (dose: 25.0 mg/kg/injection, schedule: Q01DX005 (ip), vehicle: saline with Tween-80) was 107 % of control. For the same compound, the T/C [12] was 104 % of control.

For `ClCc1ccc(CCl)c(Cl)c1Cl`, the T/C [13] was 100 % of control, the T/C (dose: 25.0 mg/kg/injection, schedule: Q04DX003 (ip), vehicle: saline with Tween-80) was 100 % of control and the T/C [5] was 95 % of control. For the same compound, the T/C [14] was 95 % of control, the T/C [6] was 95 % of control and the T/C [15] was 95 % of control.

`CCC1=[N+](C)c2ccccc2C1(C)C` was tested, and the T/C (dose: 25.0 mg/kg/injection, schedule: Q04DX003 (ip), vehicle: saline) was 100 % of control, the T/C [16] was 99 % of control and the T/C [17] was 107 % of control.

`COC(=O)C1=CO[C@@H](C)[C@@H]2CN3CCc4c([nH]c5ccc(OC)cc45)[C@@H]3C[C@H]12` was tested, and the T/C [12] was 106 % of control, the T/C [18] was 101 % of control and the T/C [19] was 105 % of control.

In the case of `S=c1nc2ccccn2c(=S)n1-c1ccccn1`, the T/C [14] is reported as 95 % of control and the T/C [15] is reported as 115 % of control.

With `CCOC(=O)c1cc(-c2cc(-c3ccccn3)nnc2-c2ccccn2)c(=O)n(C)c1C` the T/C [9] was 102 % of control, the T/C [10] was 97 % of control and the T/C [11] was 98 % of control.

In the case of `NS(=O)(=O)c1c[n+]([O-])ccc1Cl`, the T/C [5] is reported as 100 % of control, the T/C [6] is reported as 100 % of control and the T/C [7] is reported as 100 % of control.

With `CCOC([O-])=N/C(=N/[n+]1ccc(C)cc1)c1ccccc1` the T/C [17] was 104 % of control and the T/C (dose: 200.0 mg/kg/injection, schedule: Q04DX003 (ip), vehicle: saline) was 106 % of control.

For `CC(CCOc1ccc2ccc(=O)oc2c1)C1=CC(=O)C(C)(C)O1` (stereo not drawn), the T/C (dose: 12.5 mg/kg/injection, schedule: Q01DX009 (ip), vehicle: saline with Tween-80) was 103 % of control, the T/C [13] was 90 % of control and the T/C [5] was 116 % of control. The T/C [6] was 116 % of control.

`O=[N+]([O-])c1cccnc1Sc1ncccn1` was tested, and the T/C [15] was 100 % of control, the T/C [20] was 100 % of control and the T/C (dose: 400.0 mg/kg/injection, schedule: Q04DX003 (ip), vehicle: saline with Tween-80) was 100 % of control.

`COc1cc(/C=C/C2=C(C)C(=O)CC(c3cc(OC)c(OC)c(OC)c3)C2C)cc(OC)c1OC` (stereo not drawn) was tested, and the T/C (dose: 12.5 mg/kg/injection, schedule: Q04DX003 (ip), vehicle: Klucel (hydroxypropylcellulose) (HPC)) was 100 % of control, the T/C (dose: 25.0 mg/kg/injection, schedule: Q04DX003 (ip), vehicle: Klucel (hydroxypropylcellulose) (HPC)) was 101 % of control and the T/C (dose: 50.0 mg/kg/injection, schedule: Q04DX003 (ip), vehicle: Klucel (hydroxypropylcellulose) (HPC)) was 97 % of control.

`CCCCCCCCCCCCCCCC[N+](C)(C)CCSCC(N)=O` was tested, and the T/C (dose: 12.5 mg/kg/injection, schedule: Q04DX003 (ip), vehicle: saline) was 109 % of control and the T/C [16] was 111 % of control and 121 % of control.

For `Cn1c(-c2ccccc2)nc(-c2ccccc2)[n+]1[O-]`, the T/C (dose: 60.0 mg/kg/injection, schedule: Q01DX005 (ip), vehicle: Klucel (hydroxypropylcellulose) (HPC)) was 102 % of control, the T/C (dose: 120.0 mg/kg/injection, schedule: Q01DX005 (ip), vehicle: Klucel (hydroxypropylcellulose) (HPC)) was 96 % of control and the T/C (dose: 240.0 mg/kg/injection, schedule: Q01DX005 (ip), vehicle: Klucel (hydroxypropylcellulose) (HPC)) was 95 % of control.

For `C=C1C2CCC3C4(C)CCCC(C)(C(=O)O)C4CCC3(C2)C1OC(=O)/C(C)=C/C` (stereo not drawn), the T/C (dose: 12.5 mg/kg/injection, schedule: Q01DX005 (ip), vehicle: Klucel (hydroxypropylcellulose) (HPC)) was 102 % of control, the T/C (dose: 25.0 mg/kg/injection, schedule: Q01DX005 (ip), vehicle: Klucel (hydroxypropylcellulose) (HPC)) was 96 % of control and the T/C [8] was 90 % of control. For the same compound, the T/C [12] was 99 % of control, the T/C [1] was 87 % of control and the T/C [18] was 95 % of control. The T/C [19] was 95 % of control and the T/C (dose: 400.0 mg/kg/injection, schedule: Q01DX005 (ip), vehicle: saline with Tween-80) was 95 % of control.

`NC1=NN(S(=O)(=O)c2ccccc2)CC1` was tested, and the T/C [8] was 94 % of control, the T/C [1] was 99 % of control and the T/C [2] was 98 % of control.

`CCN(CC)CCCC(C)NC(=S)N/N=C(\C)c1ccccn1` (stereo not drawn) was tested, and the T/C [3] was 110 % of control and 113 % of control and the T/C [4] was 157 % of control.

`Cc1nc(-c2ccccc2)c2c(C)[nH]c(-c3ccccc3)c2n1` was tested, and the T/C (dose: 50.0 mg/kg/injection, schedule: Q01DX009 (ip), vehicle: Klucel (hydroxypropylcellulose) (HPC)) was 110 % of control, the T/C (dose: 100.0 mg/kg/injection, schedule: Q01DX009 (ip), vehicle: Klucel (hydroxypropylcellulose) (HPC)) was 112 % of control and the T/C (dose: 200.0 mg/kg/injection, schedule: Q01DX009 (ip), vehicle: Klucel (hydroxypropylcellulose) (HPC)) was 104 % of control.

For `COc1ccc(N=Nc2c(O)n(-c3ccc(Br)cc3)c(=S)n(-c3ccc(OC)cc3)c2=O)cc1`, the T/C [15] was 96 % of control and the T/C [20] was 87 % of control.

For `CC(=O)N(C)N(Cc1ccc([N+](=O)[O-])cc1)C(C)=O`, the T/C (dose: 25.0 mg/kg/injection, schedule: Q01DX009 (ip), vehicle: other) was 95 % of control, the T/C (dose: 50.0 mg/kg/injection, schedule: Q01DX009 (ip), vehicle: other) was 102 % of control and the T/C (dose: 100.0 mg/kg/injection, schedule: Q01DX009 (ip), vehicle: other) was 93 % of control. The T/C (dose: 200.0 mg/kg/injection, schedule: Q01DX009 (ip), vehicle: other) was 93 % of control and the T/C (dose: 400.0 mg/kg/injection, schedule: Q01DX009 (ip), vehicle: other) was 89 % of control.
